According to PMC7089970, “Structural insights into catalytic mechanism and product delivery of cyanobacterial acyl-acyl carrier protein reductase” (Nature Communications, 2020):
Where two headings read alike, the source gives them in different places.

What was measured:
AAR [1] = settings: ITC
Source text: To verify this assumption, we measured the binding affinity of K^+ ions with AAR, using ITC method.
AAR to perform all the experiments. The small organic molecule, such as stearoyl-CoA, can be used in high concentration, which is more favorable for either co-crystallization with AAR(-ADO) or soaking with the AAR(-ADO) crystals. In comparison, stearoyl-ACP is an 80-residue protein with a stearoyl chain linked to the 4’-phosphopanthetheine on a Ser residue, while the crystallization of protein-protein complexes (AAR-ACP) is much difficult than that of protein-ligand
(AAR-stearoyl-CoA) complexes.
ACP protein covalently linked with stearic chain (stearoyl-ACP), according to the […]
Considering the similar chemical structure of the acyl part of acyl-ACP and acyl-CoA, and the time-consuming experimental processes for obtaining the stearoyl-ACP protein and […]
In our originally submitted manuscript, we supposed that Mg2+ ion binds with AAR near its active site, but we […]
performed ITC experiment to confirm whether Mg2+ ions bind with AAR.
4. The authors assumed that Mg2+ and K+ ions bind to AAR in the crystals. However,
Therefore, it is required to confirm that Mg2+ and/or K+ really bind to AAR using […]
We have now performed the ITC

AAR [2] = settings: cited from earlier work
AAR-wt = target: T1, AAR-wt (Synechococcus elongatus, UniProt Q54765); assay: Isothermal titration calorimetry, stearoyl-CoA (650 uM) titrated into 30 uM AAR in 25 mM Tris-HCl pH 7.6, 1 mM TCEP, without KCl.; type: binding; settings: read-out: KD value (µM), AAR (−K+)
T1 construct: gene Synpcc7942_1594; full length (341 residues), C-terminal His-tag removed by TEV protease; expressed in E. coli BL21(DE3) with chaperone plasmid pG-KJE8
T1 sequence (Q54765 whole entry): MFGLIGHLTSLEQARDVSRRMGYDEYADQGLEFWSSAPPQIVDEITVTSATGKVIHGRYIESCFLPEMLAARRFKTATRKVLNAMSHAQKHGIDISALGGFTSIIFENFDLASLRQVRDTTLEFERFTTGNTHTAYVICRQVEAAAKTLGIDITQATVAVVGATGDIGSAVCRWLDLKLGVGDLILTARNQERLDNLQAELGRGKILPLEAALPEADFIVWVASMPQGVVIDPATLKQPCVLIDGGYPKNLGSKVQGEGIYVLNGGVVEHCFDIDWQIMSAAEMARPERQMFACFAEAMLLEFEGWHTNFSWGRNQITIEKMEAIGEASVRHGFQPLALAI
Protocol: The binding affinity of AAR with ADO or stearoyl-CoA was measured by isotheral titration calorimetry (ITC) using a MicroCal Auto-ITC200 microcalorimeter (GE Healthcare Bio-sciences, Pittsburgh, PA). […] Wild type or mutants of ADO (or AAR) were placed into the sample cell (200 µL working volume) at a final concentration of 30 µM (60 µM for AAR) and was titrated with successive 2-µL injections of AAR protein with concentration of 500 µM (or ADO protein with concentration of 1 mM). Titrating AAR (500 µM) or ADO (1 mM) into the same buffer was performed as a control to determine the background correction. […] Injection of stearyol-CoA into the reaction buffer was performed as control to determine background correction.

[3] = target: T2, acyl-ACP reductase from Synechococcus elongatus PCC 7942, C294S mutant (Synechococcus elongatus PCC 7942, UniProt Q54765 1-341, C294S); assay: crystal structure; AAR incubated with stearoyl-CoA (1:3), then with ADO (1:1), gel filtration; crystals in 0.1 M HEPES pH 7.5, 20% PEG8000; NADPH form by soaking; settings: both partners purified
T2 construct: acyl-ACP reductase (AAR), Synechococcus elongatus PCC 7942, gene Synpcc7942_1594; complete protein of 341 residues; also called AAR C294S; AAR_(stearoyl-CoA); source: E. coli BL21(DE3), purified (same protocol as wild-type AAR); incubated with stearoyl-CoA before ADO was added; not shown: His6, C-terminal, cleaved
T2 sequence (looked up): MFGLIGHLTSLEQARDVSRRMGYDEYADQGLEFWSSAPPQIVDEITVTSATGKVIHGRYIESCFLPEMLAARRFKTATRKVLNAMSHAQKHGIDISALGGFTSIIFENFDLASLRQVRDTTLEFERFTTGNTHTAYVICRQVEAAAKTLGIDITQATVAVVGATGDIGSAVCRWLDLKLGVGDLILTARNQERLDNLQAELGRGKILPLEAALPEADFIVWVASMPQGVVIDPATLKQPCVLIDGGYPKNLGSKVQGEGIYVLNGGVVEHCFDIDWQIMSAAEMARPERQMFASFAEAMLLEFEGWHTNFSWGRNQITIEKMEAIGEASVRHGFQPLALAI

For `[K+]` [K^+], the “binding of metal ion with AAR (in words)” value (AAR [1]) is given as “failed to detect signs of AAR binding K^+ ions”, the “binding of metal ion with AAR (in words)” value (AAR [1]; listed as K+) is given as “do not stably/directly bind AAR” and the “stimulation of AAR activity by monovalent metal ions” value (AAR [2]) is given as 10–20 fold.

Molecule `CCCCCCCCCCCCCCCCCC(=O)SCCNC(=O)CCNC(=O)[C@H](O)C(C)(C)COP(=O)(O)OP(=O)(O)OC[C@H]1O[C@@H](n2cnc3c(N)ncnc32)[C@H](O)[C@@H]1OP(=O)(O)O` [stearoyl-CoA, stearoyl-coenzyme A] has a Kd (AAR-wt) of 2.3 ± 0.38 µM.

B1: aldehyde-deformylating oxygenase from Synechococcus elongatus PCC 7942, wild type, His-tag removed (enzyme, UniProt Q54764 1-231, looked up)
chain: MPQLEASLELDFQSESYKDAYSRINAIVIEGEQEAFDNYNRLAEMLPDQRDELHKLAKMEQRHMKGFMACGKNLSVTPDMGFAQKFFERLHENFKAAAAEGKVVTCLLIQSLIIECFAIAAYNIYIPVADAFARKITEGVVRDEYLHRNFGEEWLKANFDASKAELEEANRQNLPLVWLMLNEVADDARELGMERESLVEDFMIAYGEALENIGFTTREIMRMSAYGLAAV
notes: aldehyde-deformylating oxygenase (ADO), Synechococcus elongatus PCC 7942, gene Synpcc7942_1593; Constructed and expressed 'similarly as' SeAAR in the modified pET24a (C-terminal TEV site and His6 peptide); ENLYFQ probably stays after cleavage (surmised); also called ADO; SeADO; not shown: His6, C-terminal, cleaved
B1: binds [3].
